Results as given in patent US8575359B2, “Acid-sensitive linkers for drug delivery” (The Regents of the University of California, priority 2006, dated 2013).
Like-named read-outs stand apart in the source and are kept apart here.

System: human ovarian carcinoma 2008 cells
Test: Cytotoxicity (colony formation assay) on human ovarian carcinoma 2008 cells
Format: cell-based
Description: Cells were exposed to various concentrations of 10 for 1 hour and survival was determined after a further […] period of growth in drug-free medium.
Human ovarian carcinoma 2008 cells were plated in 6-well plates at a density of 200 cells in 3 mL of media (RPMI-1640+10% Fetal Bovine Serum) per well and incubated overnight to allow the cells to adhere to the bottom of the wells. After overnight incubation the media was removed from each well and fresh growth media containing different concentrations of 10 was added to the wells. The cells were incubated for 1 hour in the presence of 10. Following the removal of the solutions containing 10, the cells were incubated with fresh media for […] to allow surviving cells to form colonies. […] Clusters containing >50 cells were scored as colonies using an AlphaInontech Imager. The colony formation assay was performed in triplicate on 3 independent occasions.
Chem. Int. Ed. 2004, 43, 739-742. Norrisolide Core (5, 11 μmol) was dissolved in 0.5 mL of dichloromethane (DCM). 4-carboxybenzaldehye (19 μmol), N,N′-dicyclohexylcarbodiimide (DCC, 19 μmol) and Dimethylaminopyridine (DMAP, 1 crystal) was added and stirred overnight at 23° C.

[1] = Table 3, human ovarian carcinoma 2008 cells, read-out: IC50
[2] = human ovarian carcinoma 2008 cells, relative to compound 10

CCOC(c1ccc([N+](=O)[O-])cc1)n1ccnc1 (stereo not drawn) [Compound 3]
IC50 [1]: 0.1 µM

COc1cccc2c1C(=O)c1c(O)c3c(c(O)c1C2=O)C[C@@](O)(C(=O)CO)C[C@@H]3O[C@H]1C[C@H](NC(=O)c2ccc(C=O)cc2)[C@H](O)[C@H](C)O1 [Compound 10, N-(4-formylbenzoyl)doxorubicin]
IC50 (1 hour exposure, colony formation, read-out: IC50 against human ovarian carcinoma 2008 cells): ~12 µM

CCOC(c1ccccc1OC)n1ccnc1 (stereo not drawn) [Compound 6]
IC50 [1]: 55 µM

COc1cccc2c1C(=O)c1c(O)c3c(c(O)c1C2=O)C[C@@](O)(C(=O)CO)C[C@@H]3O[C@H]1C[C@H](N)[C@H](O)[C@H](C)O1 [doxorubicin, Doxorubicin, reference compound]
IC50 fold lower than that of 10 [2]: > 10 fold

N-ethoxybenzylimidazole-doxorubicin Conjugate [Compound 9]
IC50 fold higher than that of 10 [2]: 2 fold

CCOC(c1ccccc1Br)n1ccnc1 (stereo not drawn) [Compound 5]
IC50 [1]: 52 µM

CCOC(c1ccc(Br)cc1)n1ccnc1 (stereo not drawn) [Compound 2]
IC50 [1]: 9 µM

CCCCc1ccc(C(OCC)n2ccnc2)cc1 (stereo not drawn) [Compound 4]
IC50 [1]: 0.25 µM

CCOC(c1ccccc1)n1ccnc1 (stereo not drawn) [Compound 1, N-ethoxybenzylimidazole]
IC50 [1]: 0.01 µM
